In patent US20060276537A1, “Use of ladostigil for the treatment of multiple sclerosis” (priority 2005, published 2006):
Marks after values point to notes of the source that are not given here.

Columns and labels:
Format in all cases: in vivo
MAO-A = molecular target: T1, MAO-A (Mus musculus, UniProt Q64133); test: MAO assay (14C 5-HT substrate) in brains of treated EAE mice
T1 construct: in the brains of EAE mice; from tissue; host or cells: brain homogenate of ladostigil-treated EAE mice
T1 sequence (Q64133 1-526): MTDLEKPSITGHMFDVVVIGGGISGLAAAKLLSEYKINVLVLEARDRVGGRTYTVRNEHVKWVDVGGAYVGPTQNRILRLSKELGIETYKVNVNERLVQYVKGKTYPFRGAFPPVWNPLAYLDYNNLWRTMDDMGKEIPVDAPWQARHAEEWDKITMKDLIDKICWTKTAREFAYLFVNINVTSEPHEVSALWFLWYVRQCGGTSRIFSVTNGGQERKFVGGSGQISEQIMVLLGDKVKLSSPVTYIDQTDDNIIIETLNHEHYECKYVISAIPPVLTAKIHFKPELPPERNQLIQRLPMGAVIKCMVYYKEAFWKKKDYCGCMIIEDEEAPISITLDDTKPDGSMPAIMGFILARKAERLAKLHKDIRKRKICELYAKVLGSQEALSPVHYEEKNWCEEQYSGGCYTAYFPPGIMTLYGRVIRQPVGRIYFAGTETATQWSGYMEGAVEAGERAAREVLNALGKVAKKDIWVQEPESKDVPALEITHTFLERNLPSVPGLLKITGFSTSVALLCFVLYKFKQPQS
Procedure: From the mice of Example 2, the level of MAO (MAO-A and MAO-B) inhibition was determined using ^14C-Labeled 2-phenylethylamine and 5-hydroxytryptamine as substrates.
The MAO enzyme obtained from a homogenate of rat brain in 0.3M sucrose, which was centrifuged at 600 g for 15 minutes. The supernatant is diluted appropriately in 0.05M phosphate buffer, and pre-incubated with serial dilutions of test compounds for 20 minutes at 37° C. ^14C-Labeled substrates (2-phenylethylamine, hereinafter PEA; 5-hydroxytryptamine, hereinafter 5-HT) are then added, and the incubation continued for a further 20 minutes (PEA), or 30-45 minutes (5-HT). Substrate concentrations used are 50 μM (PEA) and 1 mM (5-HT). In the case of PEA, enzyme concentration is chosen so that not more than 10% of the substrate is metabolized during the course of the reaction. Deaminated products are extracted into toluene-ethyl acetate (1:1 v/v) containing 0.6% (w/v) 2,5-diphenyloxazole (ppo) prior to determination by liquid scintillation counting. Radioactivity in the eluate indicates the production of neutral and acidic metabolites formed as a result of MAO activity. Activity of MAO in the sample is expressed as a percentage of control activity in the absence of inhibitors after subtraction of appropriate blank values. The activity determined using PEA as substrate is referred to as MAO-B, and that determined using 5-HT as MAO-A. Concentrations of inhibitor producing 50% inhibition of substrate metabolism (IC50) are calculated from the inhibition curves.

[1] = test system: acetylcholinesterase (AChE); test: Cholinesterase assay (modified Ellman, ATC substrate) in brain and blood of treated EAE mice; settings: for Blood AChE U/ml / Blood AchE % inhibition: blood of EAE mice; for Brain AChE U/g (Total ChE) / Brain AchE % inhibition: brain of EAE mice
Procedure: From the mice of Example 2, acetylcholinesterase (AChE) and butyrylcholinesterase (BChE) activities were determined by a modification of Ellman's spectophotometric method using acetyltiocholine (ATC) and butyryltiocholine (BTC) as substrates.
Homogenate of 100 mg brain tissue in 1 ml 100 mM phosphate buffer pH=8.0 was prepared. 0.4 ml of crude homogenate was added to 1.2 ml pre-warmed 4 mM 5,5′-Dithiobis(2-nitrobenzoic acid) (DTNB or Ellman's reagant); 30 μl from this mixture were added to 210 μl pre-warmed (28° C.) 50 mM phosphate buffer in a microplate; and the reaction was started by addition of 10 μl ATC or BTC (final concentration=1 mM) or water (for the blank reaction) The increase in optical density (OD) at 412 nm was monitored for 3 minutes and the slope of the straight line obtained by linear regression provided the activity in terms of ΔOD/min using SOFTMAX® software. Blank reaction was subtracted.
Conversion of ΔOD/min into Enzyme Activity was Performed as Follows: Unit enzyme/gram tissue=OD/min*0.25/10.54*4*1000/30*11
The same procedure was performed as with brain homogenate using 50 μl of ¼ hemolysate/DTNB mixture.
Enzyme activity in the blood was calculated in units/1 ml whole blood.
AChE activity was calculated as follows: AChE activity=ΔOD/min (determined with ATC)−ΔOD/min (determined with BTC)/0.7
0.7=BChE activity on BTC/BChE activity on ATC. It was determined by using 1.25-10^−6M BW281C51 to inhibit AChE and with ATC and BTC as substrates.

[2] = Body weight of the EAE mice (Table 7)
Description: These differences were statistically significant (p<0.000, Manova). According to the subsequent Post Hoc comparison (LSD), all the groups were different from the control (Table 7). […] On day 14, four days after the onset of the disease, sick mice lost an average of 2 g of weight. The average mean weight of GA-blocked mice was reduced by only 0.4 g. On day 23 the control group reached the lowest weight, 14.6 g.

[3] = 51 and 70.1 mg/kg/day, doses effective in ameliorating EAE

## C#CCN[C@@H]1CCc2ccc(OC(=O)N(C)CC)cc21 [Ladostigil, R(+)-6-(N-methyl,N-ethyl-carbamoyloxy)-N′-propargyl-1-aminoindan]
MAO-A; 51 and 70.1 mg/kg/day, brain
  MAO-A inhibition: 55-60%
MAO-A; brain of EAE mice, 10.2 mg/kg
  MAO-A activity dpm: 3702 +/− 119 dpm
MAO-A; brain of EAE mice, 25.5 mg/kg
  MAO-A activity dpm: 2672 +/− 128 dpm
MAO-A; brain of EAE mice, 51 mg/kg
  MAO-A activity dpm: 1822 +/− 115 dpm
MAO-A; brain of EAE mice, 70.1 mg/kg
  MAO-A activity dpm: 1621 +/− 158 dpm
MAO-A; mouse, brain of EAE mice, 10.2 mg/kg
  inhibition at 10.2 mg/kg: 9%
MAO-A; mouse, brain of EAE mice, 25.5 mg/kg
  inhibition at 25.5 mg/kg: 34%
MAO-A; mouse, brain of EAE mice, 51 mg/kg
  inhibition at 51 mg/kg: 55%
MAO-A; mouse, brain of EAE mice, 70.1 mg/kg
  inhibition at 70.1 mg/kg: 60%
[1]; [3]
  inhibition of AChE in blood: 60-65%
  inhibition of AChE in brain: 47-52%
[1]; 10.2 mg/kg salt
  Blood AChE U/ml: 0.85 +/− 0.17 U/ml
  Blood AchE % inhibition: 37.4* %
  Brain AChE U/g (Total ChE): 8.77 +/− 1.23 U/g
  Brain AchE % inhibition: 13.4%
[1]; 25.5 mg/kg salt
  Blood AChE U/ml: 0.73 +/− 0.12 U/ml
  Blood AchE % inhibition: 46.3* %
  Brain AChE U/g (Total ChE): 7.42 +/− 1.29 U/g
  Brain AchE % inhibition: 26.8* %
[1]; 51 mg/kg salt
  Blood AChE U/ml: 0.54 +/− 0.1 U/ml
  Blood AchE % inhibition: 60.2* %
  Brain AChE U/g (Total ChE): 5.41 +/− 0.6 U/g
  Brain AchE % inhibition: 46.6* %
[1]; 70.1 mg/kg salt
  Blood AChE U/ml: 0.48 +/− 0.1 U/ml
  Blood AchE % inhibition: 64.9* %
  Brain AChE U/g (Total ChE): 4.85 +/− 0.65 U/g
  Brain AchE % inhibition: 52.2* %
[2]; day 2 after induction, ladostigil salt 10.2 mg/kg gavage daily
  Weight of EAE mice: 18.1 ± 1.0 g
[2]; day 2 after induction, ladostigil salt 25.5 mg/kg gavage daily
  Weight of EAE mice: 18.2 ± 0.8 g
[2]; day 2 after induction, ladostigil salt 51 mg/kg gavage daily
  Weight of EAE mice: 18.2 ± 0.9 g
[2]; day 2 after induction, ladostigil salt 70.1 mg/kg gavage daily
  Weight of EAE mice: 18.5 ± 0.8 g
[2]; day 14 after induction, ladostigil salt 10.2 mg/kg gavage daily
  Weight of EAE mice: 16.0 ± 1.7 g
[2]; day 14 after induction, ladostigil salt 25.5 mg/kg gavage daily
  Weight of EAE mice: 15.9 ± 1.7 g
[2]; day 14 after induction, ladostigil salt 51 mg/kg gavage daily
  Weight of EAE mice: 15.6 ± 1.6 g
[2]; day 14 after induction, ladostigil salt 70.1 mg/kg gavage daily
  Weight of EAE mice: 15.9 ± 1.4 g
[2]; day 30 after induction, ladostigil salt 10.2 mg/kg gavage daily
  Weight of EAE mice: 17.6 ± 2.5 g
[2]; day 30 after induction, ladostigil salt 25.5 mg/kg gavage daily
  Weight of EAE mice: 17.8 ± 1.4 g
[2]; day 42 after induction, ladostigil salt 10.2 mg/kg gavage daily
  Weight of EAE mice: 17.5 ± 2.9 g
[2]; day 42 after induction, ladostigil salt 25.5 mg/kg gavage daily
  Weight of EAE mice: 17.6 ± 1.7 g
[2]; highest dose of ladostigil, day 30
  Weight compared with positive control: comparable with the positive control
